Data set [1] is described as follows: Resistance index, ratio of EC50 for antiviral activity against HIV1 expressing RT Y181C mutant infected in human MT4 cells to EC50 for antiviral activity against HIV1 3B infected in human MT4 cells. The class given is functional.
Data set [2] can be described thus: Resistance index, ratio of EC50 for antiviral activity against HIV1 expressing RT L100I mutant infected in human MT4 cells to EC50 for antiviral activity against HIV1 3B infected in human MT4 cells. The format is functional.
Data set [3] has as its system Human immunodeficiency virus 1. Briefly: Antiviral activity against HIV1 harboring RT F227L/V106Amutant infected in human MT4 cells assessed as inhibition of virus-induced cytopathic effect incubated for 5 days by MTT assay. The class given is functional, organism-based. The note with it: Human immunodeficiency virus 1, MT4, 120 h. A general note: Cytopathic effects are the visible damage that an infection or toxin causes in cultured cells.

The nature of data set [4]: Resistance index, ratio of EC50 for antiviral activity against HIV1 expressing RT E138K mutant infected in human MT4 cells to EC50 for antiviral activity against HIV1 3B infected in human MT4 cells. The class given is functional.
The nature of data set [5]: Resistance index, ratio of EC50 for antiviral activity against HIV1 expressing RT Y188L mutant infected in human MT4 cells to EC50 for antiviral activity against HIV1 3B infected in human MT4 cells. The format is functional.
Data set [6] is described as follows: Resistance index, ratio of EC50 for antiviral activity against HIV1 expressing RT K103N mutant infected in human MT4 cells to EC50 for antiviral activity against HIV1 3B infected in human MT4 cells. The format is functional.
Data set [7] is described as follows: Resistance index, ratio of EC50 for antiviral activity against HIV1 expressing RT F227L/V106A mutant infected in human MT4 cells to EC50 for antiviral activity against HIV1 3B infected in human MT4 cells. The class given is functional.
A short description of data set [8]: Selectivity index, ratio of CC50 for human MT4 cells to EC50 for antiviral activity against HIV1 RES056 infected in human MT4 cells. The class given is toxicity, cell-based. The settings on record: read-out: Ratio CC50/EC50.
Data set [9] is described as follows: Cytotoxicity against human MT4 cells assessed as reduction in cell viability incubated for 5 days by MTT assay. The format is cell-based. The settings on record: time 5 day. In general terms: Formazan colour is commonly taken as a measure of viable cells.
The test system of data set [10] is Human immunodeficiency virus 1. The data set can be described thus: Antiviral activity against HIV1 RES056 infected in human MT4 cells assessed as inhibition of virus-induced cytopathic effect incubated for 5 days by MTT assay. The format is functional, organism-based. The settings on record: Human immunodeficiency virus 1, RES056, MT4, 120 h.
The subject of data set [11] is Human immunodeficiency virus 1. The data set can be described thus: Antiviral activity against HIV1 3B infected in human MT4 cells assessed as virus-induced cytopathic effect incubated for 5 days by MTT assay. The format is functional, organism-based. The settings on record: Human immunodeficiency virus 1, 3B, MT4, 120 h.
Data set [12] is described as follows: Selectivity index, ratio of CC50 for human MT4 cells to EC50 for antiviral activity against HIV1 3B infected in human MT4 cells. The class given is toxicity, cell-based. The note with it: read-out: Ratio CC50/EC50.
In data set [13] the test system is Human immunodeficiency virus 1. The data set can be described thus: Antiviral activity against HIV1 harboring RT K103N mutant infected in human MT4 cells assessed as inhibition of virus-induced cytopathic effect incubated for 5 days by MTT assay. The format is functional, organism-based. The settings on record: Human immunodeficiency virus 1, MT4, 120 h.
Data set [14] concerns Human immunodeficiency virus 1. The data set can be described thus: Antiviral activity against HIV1 harboring RT L100I mutant infected in human MT4 cells assessed as inhibition of virus-induced cytopathic effect incubated for 5 days by MTT assay. The format is functional, organism-based. The settings on record: Human immunodeficiency virus 1, MT4, 120 h.
The subject of data set [15] is Human immunodeficiency virus 1. The data set can be described thus: Antiviral activity against HIV1 harboring RT E138K mutant infected in human MT4 cells assessed as inhibition of virus-induced cytopathic effect incubated for 5 days by MTT assay. The note with it: Human immunodeficiency virus 1, MT4, 120 h. The format is functional, organism-based.
In data set [16] the test system is Human immunodeficiency virus 1. Briefly: Antiviral activity against HIV1 harboring RT Y181C mutant infected in human MT4 cells assessed as inhibition of virus-induced cytopathic effect incubated for 5 days by MTT assay. The format is functional, organism-based. The settings on record: Human immunodeficiency virus 1, MT4, 120 h.
Data set [17] deals with Human immunodeficiency virus 1. The data set can be described thus: Antiviral activity against HIV1 harboring RT Y188L mutant infected in human MT4 cells assessed as inhibition of virus-induced cytopathic effect incubated for 5 days by MTT assay. The class given is functional, organism-based. The settings on record: Human immunodeficiency virus 1, MT4, 120 h.

Experimental findings from ChEMBL document CHEMBL4765457, “Targeting dual tolerant regions of binding pocket: Discovery of novel morpholine-substituted diarylpyrimidines as potent HIV-1 NNRTIs with significantly improved water solubility” (Eur J Med Chem, 2020) are described below.

One may read the EC50 as the concentration needed to bring the measured effect to its halfway point. For orientation: CC50 means the concentration that lowers cell viability or growth by half.

SMILES strings stand for the structures. A value given as a limit tells only on which side of the number the result lay.

`Cc1cc(C#N)cc(C)c1Oc1nc(NC2CCN(Cc3ccc(S(N)(=O)=O)cc3)CC2)nc2ccsc12`: the “Ratio EC50” value in data set [1] was 2.3; in [2], 2.4; in data set [4] it was 2; in data set [5], 2.1; in [6] it was 2; in data set [7] it was 3. Moreover, in [3], the EC50 was determined as 0.0042 µM.
In the case of `Cc1cc(C#N)cc(C)c1Oc1nc(NC2CCN(CCN3CCOCC3)CC2)nc2ccoc12`, the selectivity ratio in data set [8] was less than 1; in data set [12] it was 125. Further, in data set [9], the CC50 at 120 h is 138 µM. For the same molecule, the EC50 in data set [10] is more than 138 µM; in data set [11], 1.1 µM.
Consider `Cc1cc(C#N)cc(C)c1Oc1nc(NC2CCN(CCN3CCOCC3)CC2)nc2c1SCC2`, for which the selectivity ratio is less than 1 in data set [8] and 376 in data set [12]. Also, in data set [9], the CC50 at 120 h came to 43 µM. Besides, the concentration giving a half-maximal response (EC50) was more than 43 µM in data set [10] and 0.114 µM in data set [11].
The like results for `Cc1cc(C#N)cc(C)c1Oc1nc(NC2CCN(CCN3CCOCC3)CC2)nc2ccccc12` were, in that order, less than 1, 52, 26 µM, more than 26 µM and 0.502 µM.
The like results for `Cc1cc(C#N)cc(C)c1Oc1ccnc(NC2CCN(CCN3CCOCC3)CC2)n1` were, in that order, less than 1, 219, 246 µM, more than 246 µM and 1.12 µM.
On to `Cc1cc(C#N)cc(C)c1Oc1nc(NC2CCN(CC(=O)N3CCOCC3)CC2)nc2c1COC2`, for which the selectivity ratio is less than 1 in [8] and 1240 in data set [12]. Further, the CC50 at 120 h in data set [9] was 184 µM. In addition, the EC50 is more than 184 µM in data set [10] and 0.149 µM in [11].
As for `Cc1cc(C#N)cc(C)c1Oc1nc(NC2CCN(CC(=O)N3CCOCC3)CC2)nc2cc(F)ccc12`, the selectivity ratio in [8] is less than 2.51; in data set [12], 71. Moreover, the CC50 at 120 h in [9] is 41.1 µM. In addition, the EC50 in data set [10] is more than 16.4 µM; in data set [11] it was 0.577 µM.
The corresponding values for `Cc1cc(C#N)cc(C)c1Oc1nc(NC2CCN(CC(=O)N3CCOCC3)CC2)nc2ccccc12` are less than 1, 71, 42.6 µM, more than 42.6 µM and 0.597 µM.
For `Cc1cc(C#N)cc(C)c1Oc1nc(NC2CCN(CCN3CCOCC3)CC2)nc2c1COC2`, the selectivity ratio in data set [8] was less than 1; in data set [12], 383. The CC50 at 120 h in data set [9] was found to be 140 µM. Besides, the EC50 in [10] is more than 140 µM; in [11], 0.366 µM.
As for `COc1cc2nc(NC3CCN(CC(=O)N4CCOCC4)CC3)nc(Oc3c(C)cc(C#N)cc3C)c2cc1OC`, the values for the selectivity ratio in [8] and in data set [12] were less than 1 and 97, respectively. Moreover, the “Ratio EC50” value in data set [1] is recorded as more than 96.8; in data set [2] it was more than 96.8; in [4] it was more than 96.8; in [5] it was more than 96.8; in [6] it was 11.4; in data set [7], 0.4. Also, the EC50 in [13] is 24.8 µM; in data set [3] it was 0.974 µM; in [14], more than 211 µM; in data set [15], more than 211 µM; in data set [16], more than 211 µM; in [10], more than 211 µM. The figures for the EC50 in [11] and in data set [17] were 2.18 µM and more than 211 µM, respectively. Moreover, the CC50 at 120 h in [9] came to 211 µM.
Turning to `Cc1cc(C#N)cc(C)c1Oc1nc(NC2CCN(CC(=O)N3CCOCC3)CC2)nc2ccoc12`, the selectivity ratio is less than 1 in [8] and 383 in data set [12]. The CC50 at 120 h in data set [9] came out at 125 µM. Besides, the EC50 is more than 125 µM in data set [10] and 0.327 µM in [11].
As for `Cc1cc(C#N)cc(C)c1Oc1nc(NC2CCN(CC(=O)N3CCOCC3)CC2)nc2ccsc12`, the selectivity ratio is less than 1 in data set [8] and 416 in data set [12]. The “Ratio EC50” value in [1] is given as 52.4; in data set [2] it was 51.4; in [4] it was 1.7; in data set [5], 48.8; in data set [6] it was 13.7; in data set [7] it was “>=178.1”. The EC50 in data set [13] is 1.38 µM; in [3] it was not below 17.9 µM; in [14], 5.17 µM; in data set [15], 0.171 µM; in [16] it was 5.27 µM; in data set [10], more than 41.9 µM. Further, the EC50 in data set [11] was 0.101 µM; in [17], 4.92 µM. The CC50 at 120 h in [9] came to 41.9 µM.
For `Cc1cc(C#N)cc(C)c1Oc1nc(NC2CCN(CCN3CCOCC3)CC2)nc2c1CCC2`, the figures for the selectivity ratio in data set [8] and in [12] were less than 1 and 261, respectively. Besides, the CC50 at 120 h in data set [9] stood at 49.1 µM. Further, the figures for the EC50 in [10] and in data set [11] were more than 49.1 µM and 0.188 µM, respectively.
The like results for `Cc1cc(C#N)cc(C)c1Oc1ccnc(NC2CCN(CC(=O)N3CCOCC3)CC2)n1` were, in that order, less than 1, 1020, 143 µM, more than 143 µM and 0.141 µM.
As for `Cc1cc(C#N)cc(C)c1Oc1nc(NC2CCN(CCN3CCOCC3)CC2)nc2scnc12`, the selectivity ratio in data set [8] is less than 1; in [12], 305. The CC50 at 120 h in data set [9] turned out to be 88.6 µM. The EC50 in data set [10] was more than 88.6 µM; in data set [11], 0.291 µM.
For `COc1cc2nc(NC3CCN(CCN4CCOCC4)CC3)nc(Oc3c(C)cc(C#N)cc3C)c2cc1OC`, the figures for the selectivity ratio in data set [8] and in data set [12] were less than 1 and 68, respectively. Besides, the CC50 at 120 h in [9] was determined as 121 µM. Besides, the EC50 was more than 121 µM in data set [10] and 1.79 µM in [11].
In the case of `O=C1Nc2ccc(Cl)cc2[C@@](C#CC2CC2)(C(F)(F)F)O1` [EFAVIRENZ], the EC50 in data set [13] amounted to 0.094 µM; in data set [14], 0.04 µM; in data set [16], 0.006 µM. Further, the CC50 at 120 h in [9] is more than 6.34 µM.
Regarding `Cc1ccnc2c1NC(=O)c1cccnc1N2C1CC1` [NEVIRAPINE], the “Ratio EC50” value is on record as 40.7 in data set [1]; 6.3 in data set [2]; 1.2 in [4]; “>=46.9” in data set [5]; 31.1 in data set [6]; “>=32.9” in data set [7]. For the same molecule, the concentration for a half-maximal effect (EC50) in [13] was 5.1 µM; in [3], not below 5.41 µM; in [14] it was 1.03 µM; in data set [15], 0.191 µM; in data set [16] it was 6.69 µM; in [10] it was more than 15 µM. Moreover, the EC50 in [17] is not below 7.7 µM. Also, in [9], the CC50 at 120 h was more than 15 µM. In addition, the selectivity ratio in [12] is more than 92.
On to `Cc1cn([C@H]2C[C@H](N=[N+]=[N-])[C@@H](CO)O2)c(=O)[nH]c1=O` [ZIDOVUDINE], for which the selectivity ratio in data set [8] is more than 311; in data set [12], more than 397. Also, the “Ratio EC50” value in data set [1] is given as 0.9; in data set [2], 0.3; in data set [4] it was 1.4; in data set [5], 0.5; in data set [6], 1; in [7] it was 0.5. The EC50 came to 0.009 µM in data set [3]; 0.006 µM in data set [14]; 0.027 µM in data set [15]; 0.016 µM in data set [16]; 0.024 µM in [10]; 0.019 µM in data set [11]. Besides, the EC50 in [17] was found to be 0.009 µM. Further, the CC50 at 120 h in data set [9] is more than 7.48 µM.
